Assay results as given in patent US20260097137A1, “FLUORESCENT PROBE COMPOUNDS FOR TUMOR TARGETING IMAGING, AND SYNTHESIS METHOD THEREFOR” (HEBEI MEDICAL UNIVERSITY, priority 2023, published 2026).
Each block holds one molecule with its values, some of them ahead of it.

Assays:
FRα (in KB cells) = target: T1, FRα (in KB cells) (Homo sapiens, UniProt P15328); assay: In vitro fluorescence microscopy assay, FR+ KB cells; assay type: cell-based; details: probe 1 μM, 30 minutes, excitation 775 nm
T1 construct: endogenous in cells; host or cells: KB cells
Description: (§1) To investigate the targeting capability of compound GT-NIR-1 toward folate receptor-expressing cells and its subcellular localization, FR^+ KB cells, FR^− A549 cells, FR^+ M2-type macrophages, and FR^− M1-type macrophages were seeded in confocal-specific culture dishes at a density of 3×10^5 cells per dish. The cells were cultured at 37° C. under 5% CO2 for 24 hours. Subsequently, the cells were incubated with GT-NIR-1 (1 μM) for 30 minutes. For competitive binding assays, KB cells and M2 macrophages were co-treated with a 100-fold excess of folic acid (100 μM) and GT-NIR-1 (1 μM) for 30 minutes. After incubation, all cells were washed three times with PBS (pH=7.4). Fluorescence was excited at 775 nm, and cellular fluorescence imaging was observed using confocal fluorescence microscopy (FIG. 4 and FIG. 5).

FRβ (in M2 macrophages) = target: T2, FRβ (in M2 macrophages) (Homo sapiens, UniProt P14207); assay: In vitro fluorescence microscopy assay, FR+ M2-type macrophages; assay type: cell-based; details: probe 1 μM, 30 minutes, excitation 775 nm
T2 construct: endogenous in cells
Description: as §1

A549 cells = assay: In vitro fluorescence microscopy assay, FR- A549 cells; assay type: cell-based; details: probe 1 μM, 30 minutes
Description: as §1

M1 macrophages = assay: In vitro fluorescence microscopy assay, FR- M1-type macrophages; assay type: cell-based; details: probe 1 μM, 30 minutes
Description: as §1

folate receptors = details: background statement; cited from earlier work
[1] = tested on: FR-positive KB xenografts; assay: In vivo small animal imaging, FR+ KB cell xenografts; set-up: species or system mice; details: KB xenograft competition group, 100× excess folic acid
Description: (§2) Subcutaneous tumor models were established using FR^+ KB cell xenografts and FR A549 cell xenografts. The A549 xenograft model served as the negative control group, while a competition group was included to validate the in vivo targeting specificity of the probes toward tissues with high folate receptor expression. When tumor volumes reached 300-400 mm^3, the following treatments were administered via tail vein injection: • Blank control group: 100 μL saline; • Experimental groups: respective probes (10 nmol, dissolved in 100 μL saline); • Competition group: pre-injection of 100× excess folic acid ([…] in 100 μL saline) 15 minutes prior to probe administration (10 nmol in 100 μL saline).
(§3) Whole-body fluorescence imaging was performed using an IVIS imaging system with 750-800 nm excitation light at 2, 4, 8, 12, 24, and 48 hours post-injection. At 8 hours after systemic imaging, the mice were euthanized, and organs were collected for ex vivo tissue biodistribution analysis using the IVIS system.
The in vivo imaging capability of the GT-IR series compounds was evaluated in the FR^+ KB cell xenograft model following the same experimental procedure. Imaging was performed at 8 hours post-injection using the IVIS system with 750-800 nm excitation light. After euthanasia, organs were collected and subjected to ex vivo biodistribution analysis.

[2] = tested on: FR-negative A549 xenograft; assay: In vivo small animal imaging, FR-negative A549 cell xenografts; set-up: species or system mice; details: A549 xenograft negative control group, 10 nmol tail vein
Description: as §2, §3

FRα = target: T3, FRα (Homo sapiens, UniProt P15328); assay: In vitro affinity assay of GT-NIR series probes by flow cytometry, KB cells; assay type: cell-based; details: 500 nM, 1 hour, order GT-NIR-5 > GT-NIR-4 > GT-NIR-1
T3 construct: endogenous in cells; host or cells: KB cells
Description: (§4) To compare the targeting affinity of different compounds in the GT-NIR series for folate receptors, FR^+ KB cells and M2 macrophages were seeded in 6-well plates at a density of 1×10^6 cells per well. After 24 hours of culture, the medium was replaced with folate-free fresh medium as a blank control. IR783 (500 nM) was added to exclude false-positive effects. Media containing GT-NIR series compounds (500 nM) were added to different wells and incubated for 1 hour. The cells were then digested with trypsin, washed three times with PBS (pH=7.4), and centrifuged (2000 rpm, 5 minutes) to remove unbound probes. The cells were resuspended in […] PBS, stored in light-protected BD Falcon tubes, and analyzed by flow cytometry. Statistical data were processed using FlowJo software (FIG. 6 and FIG. 7).

FRβ = target: T4, FRβ (Homo sapiens, UniProt P14207); assay: In vitro affinity assay of GT-NIR series probes by flow cytometry, M2 macrophages; assay type: cell-based; details: 500 nM, 1 hour, order GT-NIR-5 > GT-NIR-4 > GT-NIR-1
T4 construct: endogenous in cells
Description: as §4

[3] = tested on: tumors with high folate receptor expression; details: e.g., ovarian cancer, non-small cell lung cancer; background statement; cited from earlier work

T1 sequence (P15328 25-234): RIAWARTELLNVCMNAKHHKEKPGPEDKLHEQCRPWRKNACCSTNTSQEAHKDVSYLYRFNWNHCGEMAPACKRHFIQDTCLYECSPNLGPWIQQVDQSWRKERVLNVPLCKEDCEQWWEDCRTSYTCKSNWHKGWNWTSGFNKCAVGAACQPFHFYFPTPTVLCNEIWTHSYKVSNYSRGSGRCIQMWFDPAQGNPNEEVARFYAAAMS
T3 sequence (P15328 25-234): as above
T4 sequence (P14207 17-230, species assumed): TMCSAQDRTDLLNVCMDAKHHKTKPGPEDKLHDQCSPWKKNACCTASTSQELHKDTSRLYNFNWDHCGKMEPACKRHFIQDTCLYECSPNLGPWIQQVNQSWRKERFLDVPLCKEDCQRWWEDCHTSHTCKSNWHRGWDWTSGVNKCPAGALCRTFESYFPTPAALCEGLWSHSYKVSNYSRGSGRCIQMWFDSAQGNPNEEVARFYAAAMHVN
T2 sequence (P14207 17-230, species assumed): as above

SMILES: CC1(C)C(/C=C/C2=C(Oc3ccc(C[C@H](NC(=O)CNC(=O)Cc4cc5c(=O)[nH]c(N)nc5[nH]4)C(=O)O)cc3)C(=C/C=C3/N(CCCCS(=O)(=O)O)c4ccccc4C3(C)C)/CCC2)=[N+](CCCCS(=O)(=O)[O-])c2ccccc21 [GT-NIR-1]
cell entry / fluorescence imaging by confocal microscopy (FRα (in KB cells)): successfully entered cells via targeting folate receptors | cell entry / fluorescence imaging by confocal microscopy (FRβ (in M2 macrophages)): successfully entered cells via targeting folate receptors | accumulation in folate receptor-negative cells (A549 cells): no accumulation was observed | accumulation in folate receptor-negative cells (M1 macrophages): no accumulation was observed

SMILES: Nc1nc2ncc(CNc3ccc(C(=O)N[C@@H](CCC(=O)O)C(=O)O)cc3)nc2c(=O)[nH]1 [folic acid]
Kd (folate receptors): ~1 nM

clearance from the body [1]: rapidly cleared from the body | clearance from the body [2]: rapidly cleared from the body
SMILES: CC1(C)C(/C=C/C2=C(Oc3ccc(C[C@H](NC(=O)c4ccc(CCCCc5cc6c(=O)[nH]c(N)nc6[nH]5)cc4)C(=O)O)cc3)C(=C/C=C3/N(CCCCS(=O)(=O)O)c4ccccc4C3(C)C)/CCC2)=[N+](CCCCS(=O)(=O)[O-])c2ccccc21 [GT-NIR-4]
targeted tumor imaging, whole-body fluorescence [1]: no targeted tumor imaging was observed | targeted tumor imaging, whole-body fluorescence [2]: no targeted tumor imaging was observed

binding affinity for FRα (rank order within GT-NIR series) (FRα): highest binding affinity | binding affinity for FRβ (rank order within GT-NIR series) (FRβ): highest binding affinity
SMILES: CC1(C)C(/C=C/C2=C(Oc3ccc(C[C@H](NC(=O)c4ccc(CCCCc5cc6c(=O)[nH]c(N)nc6[nH]5)s4)C(=O)O)cc3)C(=C/C=C3/N(CCCCS(=O)(=O)O)c4ccccc4C3(C)C)/CCC2)=[N+](CCCCS(=O)(=O)O)c2ccccc21 [GT-NIR-5]

SMILES: CC1(C)C(/C=C/C2=C(Oc3ccc(C[C@H](NC(=O)c4ccc(NCc5cnc6nc(N)[nH]c(=O)c6n5)cc4)C(=O)[O-])cc3)C(=C/C=C3\N(CCCCS(=O)(=O)[O-])c4ccc(S(=O)(=O)[O-])cc4C3(C)C)/CCC2)=[N+](CCCCS(=O)(=O)[O-])c2ccc(S(=O)(=O)[O-])cc21.[H+].[H+].[H+].[H+] [OTL38]
tumor illumination and dye accumulation [3]: illuminates tumor tissue at significant depths
